Results on two compounds are retold here after patent publication US10028934B2, “Substituted indazole derivatives active as kinase inhibitiors” (NERVIANO MEDICAL SCIENCES S.R.L., priority 2011, dated 2018).

In general, IC50 refers to the concentration that inhibits the measured activity by half. A higher IC50 goes with a need for much substance.

Experiment [1] has as its target KIT kinase (GST-KIT cytoplasmic domain) (Homo sapiens (Human), UniProt P10721). In words: Biochemical assay for inhibitors of KIT kinase activity. The conditions noted are these: pre activated enzyme 4 nM, 4.4 microM ATP, 60 minutes at r.t. As to the method: The GST-KIT cytoplasmic domain has been expressed in Sf21 cells infected for 66 hrs at 27° C. The recombinant protein has been purified by affinity on GSH-sepharose and eluted with glutathione. […] At the end of the phosphorylation reaction, the not reacted ATP, cold and radioactive, was captured by an excess of dowex ion exchange resin that eventually settled by gravity to the bottom of the reaction plate. […] 500 g of wet resin (SIGMA, custom prepared resin DOWEX 1×8 200-400 mesh, 2.5 Kg) were weighed out and diluted to 2 L in 150 mM sodium formate, pH 3.00. The resin was allowed to settle down overnight and then the supernatant was discarded. After three washes as above over a couple of days, the resin was allowed to settle and two volumes (with respect to the resin volume) were added of 150 mM sodium formate buffer. […] NO: 2). The peptide was purchased from American Peptide Company (Sunnyvale, Calif.). […] An automated station for serial dilutions (Biomek FX, Beckman) was used for producing 1:3 dilutions in 100% DMSO, from line A1 to A10, and for all the compounds in the column. […] The following dispensation into the plates plus 3 cycles of mixing, done by the robot itself, started the kinase reaction. At this point, the correct concentrations were restored for all the reagents. […]

Experiment [2] deals with MOLM-13 cells. Nature of the experiment: In vitro cell proliferation assay, MOLM-13 (CellTiter-Glo). The experiment is classed as cell-based. The conditions noted are these: human acute leukemia cells bearing FLT3-ITD mutation, 72 h. As to the method: (§1) The human acute leukemia MOLM-13 AND MV-4-11 cells, bearing a FLT3-ITD mutation, were seeded (5000 cells/well) in white 384 well-plates in complete medium (RPMI 1640 plus 10% Fetal bovine serum) and treated with compounds dissolved in 0.1% DMSO, 24 h after seeding. The cells were incubated at 37° C. and 5% CO2 and after 72 h the plates were processed using CellTiter-Glo assay (Promega) following the manufacturer's instruction.
(§2) CellTiter-Glo is a homogenous method based on the quantification of the ATP present, an indicator of metabolitically active cells. ATP was quantified using a system based on luciferase and D-luciferin resultant into light generation. The luminescent signal was proportional to the number of cells present in culture. Briefly, 25 microL/well reagent solution were added to each well and, after 5 minutes shaking, microplates were read by Envision (PerkinElmer) luminometer. Inhibitory activity was evaluated comparing treated versus control data using Symyx Assay Explorer (Symyx Technologies Inc.) program. IC50 was calculated using sigmoidal interpolation curve.
In general terms: In ATP-based viability assays light output follows the ATP content of the culture.

For experiment [3], the system named is MV-4-11 cells. Nature of the experiment: In vitro cell proliferation assay, MV-4-11 (CellTiter-Glo). The experiment is classed as cell-based. Conditions: MV4-11; human acute leukemia cells bearing FLT3-ITD mutation, 72 h. The procedure:
as §1, §2

Structures are written as SMILES.

Sequence of KIT kinase (GST-KIT cytoplasmic domain) (P10721 544-976): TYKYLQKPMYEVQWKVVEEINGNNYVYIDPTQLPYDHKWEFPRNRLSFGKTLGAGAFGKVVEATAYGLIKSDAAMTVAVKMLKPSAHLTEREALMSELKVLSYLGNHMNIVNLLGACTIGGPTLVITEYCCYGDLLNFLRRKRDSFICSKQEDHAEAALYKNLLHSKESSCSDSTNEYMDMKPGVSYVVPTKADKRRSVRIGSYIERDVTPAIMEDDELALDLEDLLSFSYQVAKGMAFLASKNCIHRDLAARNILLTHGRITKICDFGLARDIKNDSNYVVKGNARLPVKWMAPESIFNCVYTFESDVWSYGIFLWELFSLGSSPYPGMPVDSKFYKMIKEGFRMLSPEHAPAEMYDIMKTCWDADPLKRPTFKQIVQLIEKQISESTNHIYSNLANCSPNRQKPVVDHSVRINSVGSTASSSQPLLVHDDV

As for `CN1CCN(c2ccc(C(=O)Nc3n[nH]c4cc(OCCOCc5ccc(F)cc5)ccc34)cc2)CC1` [Cpd. 32], the IC50 is 50 nM in experiment [1], below 50 nM in experiment [2] and below 50 nM in experiment [3].

In the case of `CN1CCN(c2ccc(C(=O)Nc3n[nH]c4cc(OCCOCc5ccc(C(F)(F)F)cc5)ccc34)cc2)CC1` [Cpd. 33, 4-(4-Methyl-piperazin-1-yl)-N-{6-[2-(4-trifluoromethyl-benzyloxy)-ethoxy]-1H-indazol-3-yl}-benzamide], the values for the IC50 in experiment [1], in experiment [2] and in experiment [3] were 50 nM, below 50 nM and below 50 nM, respectively.
